According to patent US20180008592A1, “TREATMENT OF UREMIC PRURITUS” (TREVI THERAPEUTICS, INC., priority 2016, published 2018):

Assays:
Format in all cases: in vivo, human
[1] = test system: renally impaired patients on hemodialysis with moderate or severe uremic pruritus; experiment: Randomized double-blind placebo-controlled trial: Worst Itching Intensity Numerical Rating Scale (NRS); conditions: for Change from Baseline to the Evaluation Period NRS (mean SD): weeks 7 and 8, scale 0-10; for patients with ≧15% change from baseline to the Evaluation Period in the NRS: p=NS; for NRS, Change from Baseline to the Evaluation Period, mean (SD): severe pruritus subgroup (Baseline NRS ≧ 7), post-hoc
Protocol: This clinical study was a parallel, double-blind, placebo-controlled trial in which renally impaired patients on hemodialysis with moderate or severe uremic pruritus were randomized in a 1:1:1 ratio to nalbuphine ER tablets to a target dose of 120 mg BID or 60 mg BID, or matching placebo tablets BID. Medications taken for treatment of pruritus (“antipruritic medications”) were not prohibited, but their use was recorded throughout the study. Use of skin emollients was also not restricted. A placebo comparator was chosen because there are no approved treatments for uremic pruritus in the United States or Europe or an established standard of care that could serve as an active control.
The primary objectives were to evaluate the effects on itching intensity using a Worst Itching Intensity Numerical Rating Scale (NRS, 0 [no itching]-10 [worst possible itching]) (FIG. 7) as well as safety and tolerability. The study was conducted at 46 United States investigative sites and 6 investigative sites in Romania and Poland. The Sponsor oversaw the conduct of the trial and an independent unblinded Data Safety Monitoring Board reviewed safety data approximately once a month during the conduct of the trial.
To be eligible, patients had to have been on hemodialysis for 3 months, have a Patient Assessed Disease Severity (PADS) category of “B” or “C”, and a mean of 6 Worst Itching Numerical Rating Scale Scores during the week prior to randomization ≧4.5 on an 11-point scale (0, “no itching” to 10, “worst possible itching”) with at least 2 scores ≧5.0.
(§1) The primary endpoint was the change from Baseline to the Evaluation Period (Study weeks 7 and 8) in the modified intent-to-treat population. Quality of life-related secondary endpoints included change from Day 1 to the Evaluation Period in itching-related quality of life (using the Skindex-10 (FIG. 8)) and itching-related sleep disruption (using the Itch Medical Outcomes Study [Itch MOS] (FIG. 9), SLP-9). The Hospital Anxiety and Depression Score (HADS) used as a general measure of anxiety and depression. All patient-reported outcomes measures were selected based on their prior validation in uremic pruritus patients specifically or in the dialysis population more generally.
Patients were analyzed by group to which they were randomized.
(§2) The primary and quality of life secondary endpoint analyses used a mixed model repeated measures ANCOVA with the main effects of treatment and site and baseline worst itch NRS score as the covariate. The model included time (i.e. Visit) as a factor variable and treatment*time (with placebo as the reference category) with an unstructured covariance structure for repeated measures. Data from all post-baseline visits were used to fit the model. For the primary endpoint, the baseline value was defined as the mean of worst itch daytime and nighttime NRS scores used for satisfying the protocol inclusion criterion #5 (mean worst itching NRS≧4.5 based on a total of 3 daytime and 3 nighttime measurements from 3 dialysis visits). For the secondary endpoints, the baseline value was based on a measurement taken on Study Day 1, prior to randomization. A pre-specified step-down procedure was used. The first comparison was of nalbuphine 120 mg BID dose vs. placebo. If the first comparison was significant at the p<0.05 level, then the comparison between the nalbuphine 60 mg BID dose vs. placebo would be conducted. Patients with a 15% or greater response in worst itch NRS were analyzed using a Cochran-Mantel-Haenszel (CMH) test. Analysis of the Itch MOS utilized the SLP-9 scoring algorithm.
In the first 2 weeks of treatment, patients were blindly force-titrated to their assigned target dose, with the patients in the active arms reaching a dose of 60 mg BID (NAL 60) after the first week and, for those in the high dose group, to 120 mg BID (NAL 120) after the second week. Study drug was administered in blister cards containing the labeled morning and evening doses for each day of the week. […]

[2] = test system: renally impaired patients on hemodialysis with moderate or severe uremic pruritus; experiment: Same trial: Itch MOS (itch-related sleep disruption); conditions: for patients with sleep latency (time to fall asleep) >30 minutes, Itch MOS: last treatment week (Week 8)
From the text: FIG. 9 provides 12 questions and a numerical scale (range, 1-6; anchors at 1 “All of the time”; 2 “Most of the time”; 3 “A good bit of the time”; 4 “Some of the time”; 5 “A little of the time”; and 6 “None of the time”) used in assessing itching-related sleep disruption (Itch Medical Outcomes Study (MOS) Questions).
as §1, §2
(§3) In the first 2 weeks of treatment, patients were blindly force-titrated to their assigned target dose, with the patients in the active arms reaching a dose of 60 mg BID (NAL 60) after the first week and, for those in the high dose group, to 120 mg BID (NAL 120) after the second week. Study drug was administered in blister cards containing the labeled morning and evening doses for each day of the week. Subsequently, patients continued stable doses of the study drug for an additional 6 weeks and were then washed off study drug and followed for another 2 weeks for itching intensity and safety. No down-titration was permitted during the study, although patients who missed 6 or more consecutive doses during the Stable Dose Period (Weeks 3-8) could, with the Medical Monitor's approval, re-start treatment with blinded re-titration of just the morning or evening dose for 3 days before returning to the original dose. Patients were allowed to remain on their background antipruritic medications such as antihistamines and the use of these medications and indication for treatment was collected.

[3] = test system: renally impaired patients on hemodialysis with moderate or severe uremic pruritus; experiment: Same trial: Skindex-10 (itch-related quality of life); conditions: for Skindex-10 Disease Domain (bothersomeness of itching) [0-18], change from Baseline to the Evaluation Period, mean (SD) / Skindex-10 Mood/emotional distress domain (0-24), change from Baseline to the Evaluation Period, mean (SD) / Skindex-10 Social Functioning Domain [0-18], change from Baseline to the Evaluation Period, mean (SD) / Skindex-10 Total Score [0 (best) to 60 (worst)], change from Baseline to the Evaluation Period, mean (SD): 60 mg BID; for Skindex-10 Mood/emotional distress domain (0-24), change from Baseline to the Evaluation Period, mean / Skindex-10 Social Functioning Domain [0-18], change from Baseline to the Evaluation Period, mean / Skindex-10 Total Score [0 (best) to 60 (worst)], change from Baseline to the Evaluation Period, mean / Skindex-10 Disease Domain (bothersomeness of itching) [0-18], change from Baseline to the Evaluation Period, mean: 120 mg BID
From the text: FIG. 8 provides a numerical scale (range, 0-6; anchors at 0 “never bothered” and 6 “always bothered”) (top) used for answering 10 questions used in the assessment of itching-related quality of life (bottom) (Skindex-10).
as §1, §2, §3

[4] = severe subgroup (Baseline NRS ≧ 7), N = 61
[5] = severe subgroup (Baseline NRS ≧ 7), N = 63

Cl.Oc1ccc2c3c1O[C@H]1[C@@H](O)CC[C@@]4(O)[C@@H](C2)N(CC2CCC2)CC[C@]314 [Nalbuphine, 17-(cyclobutylmethyl)-4,5α-epoxymorphinian-3,6α, 14-triol, hydrochloride]
difference vs. placebo in worst itching NRS (primary endpoint) ([1]; 60 mg BID): no significant difference | Change from Baseline to the Evaluation Period NRS (mean SD) ([1]; 60 mg BID ER tablets, N = 128, baseline NRS 6.9 (1.4)): −3.1 (2.4) | Difference in the Change from Baseline to the Evaluation Period (LSMEAN, SE) vs. placebo ([1]; 60 mg BID, 95% CI (−0.84, 0.37), p = 0.441): −0.24 (0.31) | patients with ≧15% change from baseline to the Evaluation Period in the NRS ([1]; 60 mg BID): 80.5% | Change from Baseline to the Evaluation Period NRS (mean SD) ([1]; 120 mg BID ER tablets, N = 120, baseline NRS 6.9 (1.5), hydrochloride): −3.5 (2.4) | development of tolerance to the effect on itch ([1]; 120 mg BID, 8-week treatment period): no apparent development of tolerance | Difference in the Change from Baseline to the Evaluation Period (LSMEAN, SE) vs. placebo ([1]; 120 mg BID, 95% CI (−1.34, −0.13), p = 0.017): −0.73 (0.31) | reduction in itching intensity ([1]; 120 mg BID, moderate and severe uremic pruritus): 49% | patients with ≧15% change from baseline to the Evaluation Period in the NRS ([1]; 120 mg BID): 84.5% | NRS, Change from Baseline to the Evaluation Period, mean (SD) ([1]; 60 mg BID, N = 61, baseline 8.0 (0.9)): −3.4 (2.6) | NRS, Change from Baseline to the Evaluation Period, mean (SD) ([1]; 120 mg BID, N = 63, baseline 8.2 (0.8), p < 0.01): −4.5 | improvement of itching intensity and Itch MOS compared with placebo ([1]; severe subgroup (Baseline NRS ≧7.0), 60 mg BID): Neither itching intensity nor Itch MOS improved significantly | decrease of mean itching intensity ([1]; severe subgroup (Baseline NRS ≧7.0), 120 mg BID): 55% | absolute reduction of mean itching intensity (NRS) ([1]; severe subgroup (Baseline NRS ≧7.0, n=179), 120 mg BID, baseline 8.2 (0.8), p=0.007 vs. placebo): 4.5 (2.5) | Itch MOS [0 (best) to 60 (worst)], change from Baseline to the Evaluation Period, mean (SD) ([2]; 60 mg BID, N = 128): −13.9 (17.6) | patients with sleep latency (time to fall asleep) >30 minutes, Itch MOS ([2]; 60 mg BID, 68.7% at baseline): 35.9% | Itch MOS [0 (best) to 60 (worst)], change from Baseline to the Evaluation Period, mean ([2]; 120 mg BID, N = 120, p < 0.1): −16.0 | patients with sleep latency (time to fall asleep) >30 minutes, Itch MOS ([2]; 120 mg BID, 67.5% at baseline): 25.0% | Itch MOS (Itch-Related Sleep Disruption) [0 (best) to 60 (worst)], change from Baseline to the Evaluation Period, mean (SD) ([2]; severe subgroup (Baseline NRS ≧ 7), 60 mg BID, N = 61): −15.0 (17.7) | Itch MOS (Itch-Related Sleep Disruption) [0 (best) to 60 (worst)], change from Baseline to the Evaluation Period, mean ([2]; severe subgroup (Baseline NRS ≧ 7), 120 mg BID, N = 63, p < 0.01): −21.6 | Sleep disruption due to itching ([2]; severe subgroup (Baseline NRS ≧7.0), 120 mg BID, p=0.007): improved significantly relative to placebo | Skindex-10 Disease Domain (bothersomeness of itching) [0-18], change from Baseline to the Evaluation Period, mean (SD) ([3]; N = 128): −5.3 (4.9) | Skindex-10 Mood/emotional distress domain (0-24), change from Baseline to the Evaluation Period, mean (SD) ([3]; N = 128): −4.4 (5.0) | Skindex-10 Social Functioning Domain [0-18], change from Baseline to the Evaluation Period, mean (SD) ([3]; N = 128): −4.2 (6.7) | Skindex-10 Total Score [0 (best) to 60 (worst)], change from Baseline to the Evaluation Period, mean (SD) ([3]; N = 128): −13.8 (14.6) | Skindex-10 Mood/emotional distress domain (0-24), change from Baseline to the Evaluation Period, mean ([3]; N = 120): −5.2 | Skindex-10 Social Functioning Domain [0-18], change from Baseline to the Evaluation Period, mean ([3]; N = 120): −5.4 | Skindex-10 Total Score [0 (best) to 60 (worst)], change from Baseline to the Evaluation Period, mean ([3]; N = 120): −17.0 | Skindex-10 Disease Domain (bothersomeness of itching) [0-18], change from Baseline to the Evaluation Period, mean ([3]; N = 120, p < 0.1): −6.4 | Skindex-10 Disease Domain (bothersomeness of itching) [0-18], change from Baseline to the Evaluation Period, mean (SD) [3, 4]: −6.2 (5.1) | Skindex-10 Mood/emotional distress domain (0-24), change from Baseline to the Evaluation Period, mean (SD) [3, 4]: −5.1 (5.0) | Skindex-10 Social Functioning Domain [0-18], change from Baseline to the Evaluation Period, mean (SD) [3, 4]: −5.1 (7.04) | Skindex-10 Total Score [0 (best) to 60 (worst)], change from Baseline to the Evaluation Period, mean (SD) [3, 4]: −16.4 (15.1) | Skindex-10 Social Functioning Domain [0-18], change from Baseline to the Evaluation Period, mean [3, 5]: −7.1 | Skindex-10 Total Score [0 (best) to 60 (worst)], change from Baseline to the Evaluation Period, mean [3, 5]: −20.5 | Skindex-10 Disease Domain (bothersomeness of itching) [0-18], change from Baseline to the Evaluation Period, mean ([3]; severe subgroup (Baseline NRS ≧ 7), N = 63, p < 0.05): −7.1 | Skindex-10 Mood/emotional distress domain (0-24), change from Baseline to the Evaluation Period, mean ([3]; severe subgroup (Baseline NRS ≧ 7), N = 63, p < 0.1): −6.4
